In ChEMBL document CHEMBL2417483, “Synthesis of thiosemicarbazones derived from N-(4-hippuric acid)thiosemicarbazide and different carbonyl compounds as antimicrobial agents” (2013):
Converted amounts (≈) assume the structure as drawn.

Columns and labels:
[1] = tested on: Saccharomyces cerevisiae; experiment: Antifungal activity against Saccharomyces cerevisiae assessed as growth inhibition at 1 mg/mL after 24 hrs by agar well diffusion assay; type: functional; conditions: read-out: DIZ
[2] = tested on: Bacillus spizizenii; experiment: Antibacterial activity against Bacillus subtilis ATCC 6633 assessed as growth inhibition at 1 mg/mL after 24 hrs by agar well diffusion assay; type: functional; conditions: ATCC 6633, 24 h, read-out: DIZ
[3] = tested on: Klebsiella pneumoniae; experiment: Antibacterial activity against Klebsiella pneumoniae ATCC 13883 assessed as growth inhibition at 1 mg/mL after 24 hrs by agar well diffusion assay; type: functional; conditions: ATCC 13883, 24 h, read-out: DIZ
[4] = tested on: Proteus vulgaris; experiment: Antibacterial activity against Proteus vulgaris assessed as growth inhibition at 1 mg/mL after 24 hrs by agar well diffusion assay; type: functional; conditions: read-out: DIZ
[5] = tested on: Staphylococcus aureus; experiment: Antibacterial activity against Staphylococcus aureus ATCC 29213 assessed as growth inhibition at 1 mg/mL after 24 hrs by agar well diffusion assay; type: functional; conditions: ATCC 29213, 24 h, read-out: DIZ
[6] = tested on: Candida albicans; experiment: Antifungal activity against Candida albicans NRRLY 477 assessed as growth inhibition at 1 mg/mL after 24 hrs by agar well diffusion assay; type: functional; conditions: NRRLY 477, 24 h, read-out: DIZ
[7] = tested on: Escherichia coli; experiment: Antibacterial activity against Escherichia coli ATCC 25922 assessed as growth inhibition at 1 mg/mL after 24 hrs by agar well diffusion assay; type: functional; conditions: ATCC 25922, 24 h, read-out: DIZ
[8] = tested on: Priestia megaterium; experiment: Antibacterial activity against Bacillus megaterium ATCC 9885 assessed as growth inhibition at 1 mg/mL after 24 hrs by agar well diffusion assay; type: functional; conditions: ATCC 9885, 24 h, read-out: DIZ
[9] = tested on: Micrococcus luteus; experiment: Antibacterial activity against Sarcina luteus assessed as growth inhibition at 1 mg/mL after 24 hrs by agar well diffusion assay; type: functional; conditions: read-out: DIZ
[10] = tested on: Pseudomonas aeruginosa; experiment: Antibacterial activity against Pseudomonas aeruginosa ATCC 27953 assessed as growth inhibition at 1 mg/mL after 24 hrs by agar well diffusion assay; type: functional; conditions: ATCC 27953, 24 h, read-out: DIZ
[11] = tested on: Proteus vulgaris; experiment: Bacteriostatic activity against Proteus vulgaris after 24 hrs by two-fold serial dilution assay; type: functional
[12] = tested on: Escherichia coli; experiment: Potency index, ratio of ciprofloxacin MIC to compound MIC for Escherichia coli ATCC 25922; type: functional
[13] = tested on: Micrococcus luteus; experiment: Bacteriostatic activity against Sarcina luteus after 24 hrs by two-fold serial dilution assay; type: functional
[14] = tested on: Pseudomonas aeruginosa; experiment: Bacteriostatic activity against Pseudomonas aeruginosa ATCC 27953 after 24 hrs by two-fold serial dilution assay; type: functional; conditions: ATCC 27953, 24 h
[15] = tested on: Staphylococcus aureus; experiment: Bacteriostatic activity against Staphylococcus aureus ATCC 29213 after 24 hrs by two-fold serial dilution assay; type: functional; conditions: ATCC 29213, 24 h
[16] = tested on: Saccharomyces cerevisiae; experiment: Fungistatic activity against Saccharomyces cerevisiae after 24 hrs by two-fold serial dilution assay; type: functional
[17] = tested on: Klebsiella pneumoniae; experiment: Bacteriostatic activity against Klebsiella pneumoniae ATCC 13883 after 24 hrs by two-fold serial dilution assay; type: functional; conditions: ATCC 13883, 24 h
[18] = tested on: Bacillus spizizenii; experiment: Bacteriostatic activity against Bacillus subtilis ATCC 6633 after 24 hrs by two-fold serial dilution assay; type: functional; conditions: ATCC 6633, 24 h
[19] = tested on: Priestia megaterium; experiment: Bacteriostatic activity against Bacillus megaterium ATCC 9885 after 24 hrs by two-fold serial dilution assay; type: functional; conditions: ATCC 9885, 24 h
[20] = tested on: Escherichia coli; experiment: Bacteriostatic activity against Escherichia coli ATCC 25922 after 24 hrs by two-fold serial dilution assay; type: functional; conditions: ATCC 25922, 24 h
[21] = tested on: Candida albicans; experiment: Fungistatic activity against Candida albicans NRRLY 477 after 24 hrs by two-fold serial dilution assay; type: functional; conditions: NRRLY 477, 24 h
[22] = tested on: Pseudomonas aeruginosa; experiment: Potency index, ratio of ciprofloxacin MIC to compound MIC for Pseudomonas aeruginosa ATCC 27953; type: functional
[23] = tested on: Micrococcus luteus; experiment: Potency index, ratio of ciprofloxacin MIC to compound MIC for Sarcina luteus; type: functional
[24] = tested on: Proteus vulgaris; experiment: Potency index, ratio of ciprofloxacin MIC to compound MIC for Proteus vulgaris; type: functional
[25] = tested on: Klebsiella pneumoniae; experiment: Potency index, ratio of ciprofloxacin MIC to compound MIC for Klebsiella pneumoniae ATCC 13883; type: functional
[26] = tested on: Bacillus spizizenii; experiment: Antibacterial activity against Bacillus subtilis ATCC 6633 assessed as growth inhibition at 0.5 mg/mL after 24 hrs by agar well diffusion assay; type: functional; conditions: ATCC 6633, 24 h, read-out: DIZ
[27] = tested on: Staphylococcus aureus; experiment: microbe, parasite or virus in culture; conditions: ATCC 29213, 24 h, read-out: DIZ
Description: Antibacterial activity against Staphylococcus aureus ATCC 29213 assessed as growth inhibition at 0.5 mg/mL after 24 hrs by agar well diffusion assay

[28] = tested on: Micrococcus luteus; experiment: Antibacterial activity against Sarcina luteus assessed as growth inhibition at 0.5 mg/mL after 24 hrs by agar well diffusion assay; type: functional; conditions: read-out: DIZ
[29] = tested on: Pseudomonas aeruginosa; experiment: microbe, parasite or virus in culture; conditions: ATCC 27953, 24 h, read-out: DIZ
Description: Antibacterial activity against Pseudomonas aeruginosa ATCC 27953 assessed as growth inhibition at 0.5 mg/mL after 24 hrs by agar well diffusion assay

[30] = tested on: Proteus vulgaris; experiment: Antibacterial activity against Proteus vulgaris assessed as growth inhibition at 0.5 mg/mL after 24 hrs by agar well diffusion assay; type: functional; conditions: read-out: DIZ
[31] = tested on: Klebsiella pneumoniae; experiment: microbe, parasite or virus in culture; conditions: ATCC 13883, 24 h, read-out: DIZ
Description: Antibacterial activity against Klebsiella pneumoniae ATCC 13883 assessed as growth inhibition at 0.5 mg/mL after 24 hrs by agar well diffusion assay

[32] = tested on: Priestia megaterium; experiment: Antibacterial activity against Bacillus megaterium ATCC 9885 assessed as growth inhibition at 0.5 mg/mL after 24 hrs by agar well diffusion assay; type: functional; conditions: ATCC 9885, 24 h, read-out: DIZ
[33] = tested on: Saccharomyces cerevisiae; experiment: Antifungal activity against Saccharomyces cerevisiae assessed as growth inhibition at 0.5 mg/mL after 24 hrs by agar well diffusion assay; type: functional; conditions: read-out: DIZ
[34] = tested on: Candida albicans; experiment: Antifungal activity against Candida albicans NRRLY 477 assessed as growth inhibition at 0.5 mg/mL after 24 hrs by agar well diffusion assay; type: functional; conditions: NRRLY 477, 24 h, read-out: DIZ

SMILES	zone of inhibition at 1000 µg/mL [1]	zone of inhibition at 1000 µg/mL [2]	zone of inhibition at 1000 µg/mL [3]	zone of inhibition at 1000 µg/mL [4]	zone of inhibition at 1000 µg/mL [5]	zone of inhibition at 1000 µg/mL [6]	zone of inhibition at 1000 µg/mL [7]	zone of inhibition at 1000 µg/mL [8]	zone of inhibition at 1000 µg/mL [9]	zone of inhibition at 1000 µg/mL [10]	further results
O=C(O)CNC(=O)c1ccc(NC(=S)N/N=C/c2cccc(Br)c2)cc1	11 mm	13 mm	9 mm	0 mm	18 mm	0 mm	20 mm	18 mm	18 mm	11 mm	–
Cc1ccc(/C=N/NC(=S)Nc2ccc(C(=O)NCC(=O)O)cc2)cc1	0 mm	0 mm	0 mm	20 mm	10 mm	0 mm	0 mm	9 mm	24 mm	0 mm	–
O=C(O)CNC(=O)c1ccc(NC(=S)N/N=C/c2ccc(F)cc2)cc1	20 mm	20 mm	30 mm	26 mm	28 mm	20 mm	31 mm	19 mm	28 mm	30 mm	MIC [11]: 12.5 µg/mL (≈ 33.4 µM); PI [12]: 2; MIC [13]: 25 µg/mL (≈ 66.8 µM); MIC [14]: 25 µg/mL (≈ 66.8 µM); MIC [15]: 6.25 µg/mL (≈ 16.7 µM); MIC [16]: 12.5 µg/mL (≈ 33.4 µM); MIC [17]: 12.5 µg/mL (≈ 33.4 µM); MIC [18]: 12.5 µg/mL (≈ 33.4 µM); MIC [19]: 12.5 µg/mL (≈ 33.4 µM); MIC [20]: 6.25 µg/mL (≈ 16.7 µM); MIC [21]: 50 µg/mL (≈ 134 µM)
O=C(O)CNC(=O)c1ccc(NC(=S)N/N=C/c2ccc([N+](=O)[O-])cc2)cc1	0 mm	15 mm	0 mm	0 mm	11 mm	0 mm	0 mm	14 mm	0 mm	0 mm	–
C/C(=N\NC(=S)Nc1ccc(C(=O)NCC(=O)O)cc1)c1ccccc1	17 mm	14 mm	18 mm	19 mm	20 mm	0 mm	19 mm	18 mm	25 mm	19 mm	–
C/C(=N\NC(=S)Nc1ccc(C(=O)NCC(=O)O)cc1)c1ccc(Br)cc1	18 mm	15 mm	19 mm	20 mm	20 mm	0 mm	23 mm	17 mm	25 mm	19 mm	–
C/C(=N\NC(=S)Nc1ccc(C(=O)NCC(=O)O)cc1)c1ccc(C)cc1	26 mm	19 mm	22 mm	21 mm	29 mm	25 mm	27 mm	25 mm	25 mm	32 mm	MIC [11]: 12.5 µg/mL (≈ 32.5 µM); PI [12]: 2; MIC [13]: 12.5 µg/mL (≈ 32.5 µM); MIC [14]: 3.12 µg/mL (≈ 8.12 µM); MIC [15]: 6.25 µg/mL (≈ 16.3 µM); MIC [16]: 6.25 µg/mL (≈ 16.3 µM); MIC [17]: 25 µg/mL (≈ 65 µM); MIC [18]: 12.5 µg/mL (≈ 32.5 µM); MIC [19]: 12.5 µg/mL (≈ 32.5 µM); PI [22]: 4; MIC [20]: 6.25 µg/mL (≈ 16.3 µM); MIC [21]: 25 µg/mL (≈ 65 µM)
C/C(=N\NC(=S)Nc1ccc(C(=O)NCC(=O)O)cc1)c1ccc(Cl)cc1	0 mm	15 mm	0 mm	0 mm	9 mm	0 mm	0 mm	14 mm	0 mm	0 mm	–
O=C(O)CNC(=O)c1ccc(NC(=S)NN=C(c2ccccc2)c2ccccc2)cc1	0 mm	20 mm	0 mm	0 mm	0 mm	0 mm	17 mm	15 mm	0 mm	12 mm	–
O=C(O)CNC(=O)c1ccc(NC(=S)NN=C2CCCCC2)cc1	0 mm	0 mm	0 mm	20 mm	11 mm	0 mm	0 mm	9 mm	24 mm	12 mm	–
O=C(O)CNC(=O)c1ccc(NC(=S)N/N=C2/CCc3ccccc32)cc1	20 mm	18 mm	28 mm	20 mm	28 mm	20 mm	25 mm	18 mm	25 mm	28 mm	PI [23]: 2; MIC [11]: 12.5 µg/mL (≈ 32.7 µM); PI [24]: 2; PI [12]: 2; PI [25]: 2; MIC [13]: 12.5 µg/mL (≈ 32.7 µM); MIC [14]: 6.25 µg/mL (≈ 16.3 µM); MIC [15]: 6.25 µg/mL (≈ 16.3 µM); MIC [16]: 50 µg/mL (≈ 131 µM); MIC [17]: 12.5 µg/mL (≈ 32.7 µM); MIC [18]: 25 µg/mL (≈ 65.4 µM); MIC [19]: 50 µg/mL (≈ 131 µM); PI [22]: 2; MIC [20]: 12.5 µg/mL (≈ 32.7 µM); MIC [21]: 12.5 µg/mL (≈ 32.7 µM)
O=C(O)CNC(=O)c1ccc(NC(=S)N/N=C2/CC(=O)c3ccccc32)cc1	12 mm	9 mm	0 mm	20 mm	28 mm	0 mm	18 mm	0 mm	24 mm	11 mm	–
O=C(O)c1cn(C2CC2)c2cc(N3CCNCC3)c(F)cc2c1=O [CIPROFLOXACIN]	–	–	–	–	–	–	–	–	–	–	zone of inhibition at 500 µg/mL [26]: 22 mm; zone of inhibition at 500 µg/mL [27]: 20 mm; zone of inhibition at 500 µg/mL [28]: 20 mm; MIC [11]: 12.5 µg/mL (≈ 37.7 µM); MIC [13]: 12.5 µg/mL (≈ 37.7 µM); zone of inhibition at 500 µg/mL [29]: 24 mm; zone of inhibition at 500 µg/mL [30]: 23 mm; MIC [17]: 12.5 µg/mL (≈ 37.7 µM); zone of inhibition at 500 µg/mL [31]: 25 mm; MIC [18]: 6.25 µg/mL (≈ 18.9 µM); MIC [19]: 6.25 µg/mL (≈ 18.9 µM); zone of inhibition at 500 µg/mL [32]: 24 mm; MIC [20]: 12.5 µg/mL (≈ 37.7 µM)
CC(=O)N1CCN(c2ccc(OCC3COC(Cn4ccnc4)(c4ccc(Cl)cc4Cl)O3)cc2)CC1 (stereo not given) [KETOCONAZOLE]	–	–	–	–	–	–	–	–	–	–	zone of inhibition at 500 µg/mL [33]: 23 mm; MIC [16]: 3.12 µg/mL (≈ 5.87 µM); MIC [21]: 6.25 µg/mL (≈ 11.8 µM); zone of inhibition at 500 µg/mL [34]: 22 mm
